In patent US4409238A, “Insecticides and insecticidal compositions” (Kuraray Co., Ltd., priority 1977, dated 1983):

What was measured:
[1] = system: cockroaches (Blattella germanica); assay: Mortality test against cockroaches by topical application method (Test Example 3); type: in vivo; conditions: 1 μl of 1% solution in acetone, female cockroaches, 24 hours, 25° C.
Experimental: Each test compound was accurately weighed and made in a 1% solution in acetone. Then, 1 μl of the above solution was micropipetted onto the abdominal part of each female cockroach (Blattella germanica) under ether anaesthesia. The roaches were released in a high-walled dish together with feed and, after the disk was covered with a metal wire net, same was maintained at 25° C. Fifteen roaches per group were employed. After 24 hours, the test roaches were inspected for deaths and the mortality (%) for each group was calculated.

[2] = system: houseflies; assay: Settling mist mortality test against houseflies, oil preparations of Formulation Example 2 (Utility Example 3); type: in vivo, houseflies (Musca domestica); conditions: oil preparation with 0.1 part compound and 0.1 part resmethrin per 100 parts, 24 hours
Experimental: To 0.1 part of each of Compounds [1] to [17] was added 0.1 part of resmethrin, followed by the addition of a sufficient amount of kerosene to make 100 parts. The mixture was stirred to obtain an oil preparation of each compound.
By the settling mist method, a mortality test against houseflies was carried out using the oil preparations made in Formulation Example 2 from Compounds [1], [2], [5] to [11] and [17]. After 24 hours, the flies were examined for deaths. The mortality (%) was not less than 90% for each of Compounds [1], [2], [5] to [11] and [17].

[3] = Light stability test (Test Example 4); type: physicochemical; conditions: direct sunlight between glass plates, 12° C., relative to aluminum foil-covered control; for remaining at 4 h: read-out: Residue (%) Exposure time 4 hrs.; for remaining at 8 h: read-out: Residue (%) Exposure time 8 hrs.
Experimental: Into 2.0 ml of acetone were dissolved 80 mg of each test compound. A 5 μl portion of the solution was taken and spread on a glass plate (Micro Standard Cover Glass, 18 m/m No. 1, 200 pcs, Matsunami Glass Ind., Ltd.) and the acetone was evaporated. Then, a similar glass plate was superimposed on the above plate in such a manner that the test liquid was sandwitched. The specimen was exposed to direct sunlight at an atmospheric temperature of 12° C. for a predetermined exposure time. As an unexposed control, a similar specimen was covered with an aluminum foil. The test liquid was washed away with 1.0 ml of methanol containing 0.04% of dioctyl phthalate as an internal reference and high-speed liquid chromatography was carried out on the washings to determine the residual amount of the test compound. The residue (%) was calculated with the value for the aluminum foil-covered control specimen as the standard.

[4] = system: green rice leafhoppers; assay: Spray test on rice seedlings against green rice leafhoppers (Utility Example 1); type: in vivo, green rice leafhoppers (Nephotettix cincticeps); conditions: 30% emulsifiable concentrate (Formulation Example 5) diluted 300-fold, 10 ml/pot, 24 hours
Experimental: To 30 parts of each of Compounds [1], [2], [5] to [13] and [17] to [19] was added 50 parts of xylene and 20 parts of Sorpol SM-200 (a surfactant, trademark of Toho Chemical Co., Ltd.). The mixture was stirred well and dissolved to obtain a 30% emulsifiable concentrate.
The emulsifiable concentrate prepared from Compounds [1], [2], [6], [7], [9], [10], [12] and [13] in Formulation Example 5 were each diluted 300-fold with water. Then, each of the dilutions was sprayed over rice seedlings 25 days after sowing at the rate of 10 ml/pot. The pot was covered with a wire-net and 15 green rice leafhoppers were released under the net. After 24 hours, the leafhoppers were examined for deaths. The mortality (%) was not less than 90% for each of Compounds [1], [2], [6], [7], [9], [10], [12] and [13].

[5] = system: house-flies; assay: Settling mist mortality test against houseflies, oil preparations of Formulation Example 3 (Utility Example 4); type: in vivo, houseflies (Musca domestica); conditions: oil preparation with 0.1 part compound and 0.08 part permethrin per 100 parts, 24 hours
Experimental: To 0.1 part of each of Compounds [1] to [28] was added 0.08 part of permethrin, followed by the addition of a sufficient amount of kerosene to make 100 parts. The mixture was stirred to obtain an oil preparation of each compound.
By the settling mist method, a mortality test against house-flies was carried out using the oil preparations obtained in Formulation Example 3 from Compounds [1], [2], [5] to [11] and [17]. After 24 hours, the flies were examined for deaths. The mortality (%) was not less than 90% for each of Compounds [1], [2], [5] to [11] and [17].

[6] = system: houseflies (Musca domestica); assay: Settling mist mortality test against houseflies, oil preparations of Formulation Example 1 (Utility Example 2); type: in vivo; conditions: oil preparation with 0.2 part compound and 0.8 part piperonyl butoxide per 100 parts, 24 hours
Experimental: 0.2 part of each of Compounds [1], [2], [5] to [13] and [17] was prepared and 0.8 part of piperonyl butoxide was added to each of them. To this mixture was added a sufficient amount of kerosene to make 100 parts, followed by stirring. By this procedure there was obtained an oil preparation of each Compound.
By the settling mist method, a mortality test against houseflies (Musca domestica) was carried out using the oil preparations obtained according to Formulation Example 1 from Compounds [1], [2], [5] to [11] […]. After 24 hours, the flies were examined for deaths. The mortality (%) was not less than 90% for each of Compounds [1], [2], [5] to [11] to [17].

[7] = system: green rice leafhoppers (Nephotettix cincticeps); assay: Mortality test against green rice leafhoppers by topical application method (Test Example 2); type: in vivo; conditions: 0.1% solution in acetone, female adults, 24 hours, 25° C.
Experimental: Each test compound was accurately weighed and an 0.1% solution in acetone was prepared. Female adults of green rice leafhopper (Nephotettix cincticeps) were anaesthetized with carbon dioxide gas and 0.5 µl of the above solution was micropipetted onto the thoracic abdominal part of each leafhopper. Then, the test leafhoppers were kept at 25° C. with access to rice plant seedlings. Each group comprised 15 green rice leafhoppers. After 24 hours, the leafhoppers were inspected for deaths and the mortality (%) was calculated for each compound.

[8] = system: houseflies (Musca domestica); assay: Mortality test against houseflies by topical application method (Test Example 1); type: in vivo; conditions: female adult houseflies, 24 hours, 25° C.
Experimental: Each test compound was accurately weighed and a 1% solution and a 0.1% solution of the sample in acetone were prepared. A 1 μl portion of either of the above solutions was micropipetted onto the thoracic dorsal part of each female adult housefly (Musca domestica) under ether anaesthesia and the fly was released in a high-walled dish together with feed. The dish was covered with a metal-wire net and maintained at 25° C. After 24 hours, the test flies were inspected for deaths and the mortality (%) was calculated. Thirty test flies were used per concentration group.

[9] = system: guppies; assay: Fish toxicity test (Test Example 6); type: in vivo; conditions: female guppies, 48 hours, 25° C.; concentration at which 90% or more were killed
Experimental: To 5 l of water were added 250 mg of sorpol SM-200 (registered trademark, Toho Chemical Co., Ltd.) or Tween-20 (commercial product) as an emulsifier (surfactant) as well as 2.5 ml of an acetone solution containing one of the test compounds in a predetermined concentration. The mixture was stirred well to prepare a test water. Ten female guppies from 3 to 4 months of age were released into the test water and maintained at 25° C. The concentration of the test compound at which 90% or more of the guppies were killed during the ensuring 48 hours was determined. (This concentration is referred to as LC90).

[10] = Hydrolysis resistance test (Test Example 5); type: physicochemical; conditions: acetone/water, reflux for 2 days; read-out: Residue (%)
Experimental: Into about 8 ml of acetone were dissolved 100 mg of each test compound and, then, 1.0 g of water was added to this solution to prepare a mixed solution. This mixed solution was refluxed for 2 days. After concentration to about one half of the original volume and with the addition of dioctyl phthalate as an internal reference, the residual amount of the compound was determined by high-speed liquid chromatography. The residue (%) was then calculated.

In the case of `CC(C)C(C=C(Cl)Cl)C(=O)OC(C#N)c1cccc(Oc2ccccc2)c1` (stereo not drawn) [Compound [1], α-Cyano-3-phenoxybenzyl α-(2,2-dichlorovinyl)isovalerate], the mortality at 1 %, 0.01 mg [1] is reported as 100%, the “Mortality (%)” value [2] is reported as “not less than 90%” and the remaining at 4 h [3] is reported as 93%. The remaining at 8 h [3] was 90%, the “Mortality (%)” value [4] was “not less than 90%” and the “Mortality (%)” value [5] was “not less than 90%”. For the same compound, the “Mortality (%)” value [6] was “not less than 90%”, the mortality at 0.1 % [7] was at least 90% and the “Mortality (%) 1 μg/fly” value [8] was 100%. The “Mortality (%) 10 μg/fly” value [8] was 100%.
With `C#CC(OC(=O)C(C=C(Cl)Cl)C(C)C)c1cccc(Oc2ccccc2)c1` (stereo not drawn) [[2], α-Ethynyl-3-phenoxybenzyl α-(2,2-dichlorovinyl)isovalerate] the mortality at 1 %, 0.01 mg [1] was 80%, the “Mortality (%)” value [2] was “not less than 90%” and the LC90 [9] was “Not less than 10 ppm”. The remaining at 4 h [3] was 97%, the remaining at 8 h [3] was 100% and the “Mortality (%)” value [4] was “not less than 90%”. For the same compound, the remaining at 48 h [10] was over 90%, the “Mortality (%)” value [5] was “not less than 90%” and the “Mortality (%)” value [6] was “not less than 90%”. For the same compound, the “Mortality (%) 1 μg/fly” value [8] was 100% and the “Mortality (%) 10 μg/fly” value [8] was 100%.
